# Experiments:
# [1] = target: HCV NS3 protease genotype 3a (3A-1) (Hepatitis C virus genotype 3a, UniProt Q81258); experiment: HCV NS3 protease time-resolved fluorescence (TRF) assay, genotype 3a; format: biochemical; settings: Ki 3a
# Summary of the method: (§1)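 Time-resolved fluorescence, ex 340/em 615 nm, 400 μs delay; IC50 by four-parameter fit. Enzyme preincubated with compound 10 min, then TRF substrate 25 nM final added and reaction run 6 h at RT. Buffer HEPES pH 7.5 with NaCl, glycerol, Triton X-100, DTT, PEG 8000.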
# [2] = target: T1, HCV genotype 1b (BK) NS3 modified enzyme with a R155K mutation (Hepatitis C virus genotype 1b, UniProt P26663, R1181K); experiment: HCV NS3 protease time-resolved fluorescence (TRF) assay, genotype 1b R155K; format: biochemical; settings: Ki 1b R155K, genotype 1b (BK) NS3 R155K; single value
# T1 construct: HCV genotype 1b (BK) NS3 modified enzyme
# Summary of the method: as §1
Compound,Ki [1],Ki [2]
"C=C[C@@H]1C[C@]1(NC(=O)[C@@H]1C[C@@H]2CN1C(=O)[C@H](C(C)(C)C)NC(=O)O[C@@H]1CCC[C@H]1CCCCCc1c(nc3ccccc3c1OCCN(C)C)O2)C(=O)NS(=O)(=O)C1(COC)CC1 [Example 63, (3aR,7S,10S,12R, 24aR)-7-tert-butyl-19-[2-(dimethylamino)ethoxy]-N-[(1R,2S)-2-ethenyl-1-({[1-(methoxymethyl)cyclopropyl]sulfonyl}carbamoyl)cyclopropyl]-5,8-dioxo-1,2,3,3a, 5,6,7,8,11,12,20, 21,22,23,24,24a-hexadecahydro-10H-9,12-methanocyclopenta [18,19][1,10,3,6]dioxa-diazacyclononadecino [11,12-b]quinoline-10-carboxamide]",7200 pM,350 pM
"C=C[C@@H]1C[C@]1(NC(=O)[C@@H]1C[C@@H]2CN1C(=O)[C@H](C(C)(C)C)NC(=O)O[C@@H]1CCC[C@H]1CCCCCc1c(nc3ccccc3c1OCCCN1CCOCC1)O2)C(=O)NS(=O)(=O)C1(COC)CC1 [Example 64, (3aR,7S,10S,12R, 24aR)-7-tert-butyl-N-[(1R,2S)-2-ethenyl-1-({[1-(methoxymethyl)cyclopropyl]sulfonyl}carbamoyl)cyclopropyl]-19-[3-(morpholin-4-yl)propoxy]-5,8-dioxo-1,2,3,3a,5,6,7,8, 11,12,20,21,22,23,24, 24a-hexadecahydro-10H-9,12-methanycyclopenta [18,19][1,10,3,6] dioxadiazacyclo-nonadecino [11,12-b]quinoline-10-carboxamide]",5500 pM,430 pM
"C=CC1C[C@]1(NC(=O)[C@@H]1C[C@@H]2CN1C(=O)[C@H](C(C)(C)C)NC(=O)O[C@@H]1CCC[C@H]1CCCCCc1c(nc3ccccc3c1OCCN1CCOCC1)O2)C(=O)NS(=O)(=O)C1(COCCOC)CC1 (stereo partly drawn) [Example 65, (3aR,7S,10S,12R, 24aR)-7-tert-butyl-N-{(1R,2S)-2-ethenyl-1-[({1-[(2-methoxyethoxy)methyl]cyclopropyl}sulfonyl)carbamoyl]cyclopropyl}-19-[2-(morpholin-4-yl)ethoxy]-5,8-dioxo-1,2,3,3a,5,6,7,8,11, 12,20,21,22,23,24, 24a-hexadecahydro-10H-9,12-methanocyclopenta [18,19][1,10,3,6] dioxadiaza-cyclononadecino [11,12-b]quinoline-10-carboxamide]",16000 pM,560 pM
"C=C[C@@H]1C[C@]1(NC(=O)[C@@H]1C[C@@H]2CN1C(=O)[C@H](C1CCCC1)NC(=O)O[C@@H]1CCC[C@H]1CC/C=C/Cc1c(nc3ccccc3c1OCC(=O)O)O2)C(=O)NS(=O)(=O)C1CC1 [Example 66, {[(3aR,7S,10S,12R,21E,24aS)-7-cyclopentyl-10-({(1R,2S)-1-[(cyclopropylsulfonyl)carbamoyl]-2-ethenylcyclopropyl}carbamoyl)-5,8-dioxo-1,2,3,3a,5,6,7,8,11,12,20,23,24,24a-tetradecahydro-10H-9,12-methanocyclopenta[18,19][1,10,3,6]dioxadiazacyclononadecino[11,12-b]quinolin-19-yl]oxy}acetic acid]",25000 pM,77 pM
"C=C[C@@H]1C[C@]1(NC(=O)[C@@H]1C[C@@H]2CN1C(=O)[C@H](C1CCCC1)NC(=O)O[C@@H]1CCC[C@H]1CC/C=C/Cc1c(nc3ccccc3c1OCC(=O)N1CCCC1)O2)C(=O)NS(=O)(=O)C1CC1 [Example 67, (3aR,7S,10S,12R,21E,24aS)-7-cyclopentyl-N-{(1R,2S)-1-[(cyclopropylsulfonyl)carbamoyl]-2-ethenylcyclopropyl}-5,8-dioxo-19-[2-oxo-2-(pyrrolidin-1-yl)ethoxy]-1,2,3,3a,5,6,7,8,11,12,20,23,24,24a-tetradecahydro-10H-9,12-methanocyclopenta[18,19][1,10,3,6]dioxadiazacyclononadecino[11,12-b]quinoline-10-carboxamide]",6600 pM,81 pM
"C=C[C@@H]1C[C@]1(NC(=O)[C@@H]1C[C@@H]2CN1C(=O)[C@H](C1CCCC1)NC(=O)O[C@@H]1CCC[C@H]1CC/C=C/Cc1c(nc3ccccc3c1OCCCCO)O2)C(=O)NS(=O)(=O)C1CC1 [Example 68, (3aR,7S,10S,12R,21E,24aS)-7-cyclopentyl-N-{(1R,2S)-1-[(cyclopropylsulfonyl)carbamoyl]-2-ethenylcyclopropyl}-19-(4-hydroxybutoxy)-5,8-dioxo-1,2,3,3a,5,6,7,8,11,12,20,23,24,24a-tetradecahydro-10H-9,12-methanocyclopenta[18,19][1,10,3,6]dioxadiazacyclononadecino[11,12-b]quinoline-10-carboxamide]",1600 pM,160 pM
"C=C[C@@H]1C[C@]1(NC(=O)[C@@H]1C[C@@H]2CN1C(=O)[C@H](C1CCCC1)NC(=O)O[C@@H]1CCC[C@H]1CC/C=C/Cc1c(nc3ccccc3c1OCCO)O2)C(=O)NS(=O)(=O)C1CC1 [Example 69, (3aR,7S,10S,12R,21E,24aS)-7-cyclopentyl-N-{(1R,2S)-1-[(cyclopropylsulfonyl)carbamoyl]-2-ethenylcyclopropyl}-19-(2-hydroxyethoxy)-5,8-dioxo-1,2,3,3a,5,6,7,8,11,12,20,23,24,24a-tetradecahydro-10H-9,12-methanocyclopenta[18,19][1,10,3,6]dioxadiazacyclononadecino[11,12-b]quinoline-10-carboxamide]",1800 pM,< 16 pM
"C=C[C@@H]1C[C@]1(NC(=O)[C@@H]1C[C@@H]2CN1C(=O)[C@H](C(C)(C)C)NC(=O)O[C@@H]1CCC[C@H]1CC/C=C/Cc1c(nc3ccccc3c1OCCCO)O2)C(=O)NS(=O)(=O)C1CC1 [Example 70, (3aR,7S,10S,12R,21E,24aS)-7-tert-butyl-N-{(1R,2S)-1-[(cyclopropylsulfonyl)carbamoyl]-2-ethenylcyclopropyl}-19-(3-hydroxypropoxy)-5,8-dioxo-1,2,3,3a,5,6,7,8,11,12,20,23,24,24a-tetradecahydro-10H-9,12-methanocyclopenta[18,19][1,10,3,6]dioxadiazacyclononadecino[11,12-b]quinoline-10-carboxamide]",590 pM,66 pM
"C=C[C@@H]1C[C@]1(NC(=O)[C@@H]1C[C@@H]2CN1C(=O)[C@H](C(C)(C)C)NC(=O)O[C@@H]1CCC[C@H]1CC/C=C/Cc1c(nc3ccccc3c1OCCCO)O2)C(=O)NS(=O)(=O)C1(C)CC1 [Example 71, (3aR,7S,10S,12R,21E,24aS)-7-tert-butyl-N-[(1R,2S)-2-ethenyl-1-{[(1-methylcyclopropyl)sulfonyl]carbamoyl}cyclopropyl]-19-(3-hydroxypropoxy)-5,8-dioxo-1,2,3,3a,5,6,7,8,11,12,20,23,24,24a-tetradecahydro-10H-9,12-methanocyclopenta[18,19][1,10,3,6]dioxadiazacyclononadecino[11,12-b]quinoline-10-carboxamide]",420 pM,< 16 pM
"C=C[C@@H]1C[C@]1(NC(=O)[C@@H]1C[C@@H]2CN1C(=O)[C@H](C1CCCC1)NC(=O)O[C@@H]1CCC[C@H]1CC/C=C/Cc1c(nc3ccccc3c1OCCCO)O2)C(=O)NS(=O)(=O)C1CC1 [Example 72, (3aR,7S,10S,12R,21E,24aS)-7-cyclopentyl-N-{(1R,2S)-1-[(cyclopropylsulfonyl)carbamoyl]-2-ethenylcyclopropyl}-19-(3-hydroxypropoxy)-5,8-dioxo-1,2,3,3a,5,6,7,8,11,12,20,23,24,24a-tetradecahydro-10H-9,12-methanocyclopenta[18,19][1,10,3,6]dioxadiazacyclononadecino[11,12-b]quinoline-10-carboxamide]",1100 pM,< 16 pM
"C=C[C@@H]1C[C@]1(NC(=O)[C@@H]1C[C@@H]2CN1C(=O)[C@H](C1CCCC1)NC(=O)O[C@@H]1CCC[C@H]1CC/C=C/Cc1c(nc3ccccc3c1OCC(F)(F)CO)O2)C(=O)NS(=O)(=O)C1CC1 [Example 73, (3aR,7S,10S,12R,21E,24aS)-7-cyclopentyl-N-{(1R,2S)-1-[(cyclopropylsulfonyl)carbamoyl]-2-ethenylcyclopropyl}-19-(2,2-difluoro-3-hydroxypropoxy)-5,8-dioxo-1,2,3,3a,5,6,7,8,11,12,20,23,24,24a-tetradecahydro-10H-9,12-methanocyclopenta[18,19][1,10,3,6]dioxadiazacyclononadecino[11,12-b]quinoline-10-carboxamide]",2500 pM,140 pM
C=C[C@@H]1C[C@]1(NC(=O)[C@@H]1C[C@@H]2CN1C(=O)[C@H](C1CCCC1)NC(=O)O[C@@H]1CCC[C@H]1CC/C=C/Cc1c(nc3ccccc3c1OCCCOC(=O)CN(C)C)O2)C(=O)NS(=O)(=O)C1CC1 [Example 74],1300 pM,100 pM
"C=C[C@@H]1C[C@]1(NC(=O)[C@@H]1C[C@@H]2CN1C(=O)[C@H](C(C)(C)C)NC(=O)O[C@@H]1CCC[C@H]1CC/C=C/Cc1c(nc3ccccc3c1OCCN1CCCCC1)O2)C(=O)NS(=O)(=O)C1CC1 [Example 75, (3aR,7S,10S,12R,21E,24aS)-7-tert-butyl-N-{(1R,2S)-1-[(cyclopropylsulfonyl)carbamoyl]-2-ethenylcyclopropyl}-5,8-dioxo-19-[2-(piperidin-1-yl)ethoxy]-1,2,3,3a,5,6,7,8,11,12,20,23,24,24a-tetradecahydro-10H-9,12-methanocyclopenta[18,19][1,10,3,6]dioxadiazacyclononadecino[11,12-b]quinoline-10-carboxamide]",2300 pM,280 pM
